Reference: the NIST ThermoML archive (doi:10.1016/j.tca.2010.06.003)
± gives the expanded uncertainty stated by the source.

Conditions: for Normal melting temperature: Crystal; for Triple point temperature: Crystal 2, DTA

Row | Structure (SMILES) | Normal melting temperature [°C] | Triple point temperature [K]
1 | O=[N+]([O-])[O-].[Na+] [sodium nitrate] | 306.5 ± 2 | 545.5 ± 0.5
2 | O=[N+]([O-])[O-].[K+] [potassium nitrate] | 333.6 ± 2 | 405.6 ± 0.5
